The values that follow come from US8084623B2, “Pyrrolidinyl and piperidinyl ketone derivatives and uses thereof” (Roche Palo Alto LLC, priority 2006, dated 2011).

A word on the melting point: it is the temperature, or range, at which the solid turns liquid.

`CCCC1(C(=O)c2cc(F)c(N)c(Cl)c2)CCNC1` (centres unmarked) gave a melting point of 65 to 67 °C.

Take `O=C(c1ccc2[nH]ncc2c1)C1(CC2CC2)CCCN1` (centres unmarked): the melting point is 291 to 292 °C.

In the case of `O=C(c1ccc2[nH]ncc2c1)C1(CC2CCCC2)CCCN1` (centres unmarked), the melting point was above 300 °C.

Consider `CC(C)CC1(C(=O)c2cc(F)c(Cl)c(Cl)c2)CCNCC1`, for which the melting point lay in the range of 166 to 167 °C.

In the case of `CCCC1(C(=O)c2ccc(O)c(Cl)c2)CCCNC1` (centres unmarked), the melting point was in the range of 265.6 to 266.9 °C.

In the case of `CCCC1(C(=O)c2ccc(Cl)c(Cl)c2)CCN1` (centres unmarked), the melting point lay within 252.6 to 254 °C.

As to `CCCC1(C(=O)c2ccc(Cl)c(Cl)c2)CNC1`, the melting point lay within 59 to 60 °C.

With `COCC1(C(=O)c2ccc3[nH]ccc3c2)CCNC1` (centres unmarked), the melting point was in the range of 59.1 to 61 °C.
